Assay results published in PubChem BioAssay AID2060884 (Molecular Pharmacology Branch, DTP, NCI, 2025).

System: NCI-H929 complex spheroids, viability % test/control
Test: Anticancer human tumor NCI-H929 cell line growth inhibition [RAS];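 further: compound exposure lasted seven days before viability was read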
Settings: for IC50: curve of first compound; for viability, T/C: stronger effect = lower value
Excerpt: RAS pathway inhibitors in Combinations in Complex Spheroids
A high-throughput screen of multi-cell type tumor spheroids was designed to identify active combinations of RAS pathway inhibitors and targeted small molecules. Complex spheroids include a stromal component modeled by human endothelial cells (HUVEC) and fibroblasts modeled by human mesenchymal stem cells (MSCs). The concentration ranges selected for each drug and investigational agent were based upon clinically achievable concentrations if the clinical Cmax of the agent was known.
Compounds. The drugs and investigational agents: abemaciclib (NSC768073), cobimetinib (NSC768068), divarasib (GDC6063, NSC841802), docetaxel (NSC628503), GDC-1971 (RLY-1971, NSC841576), gemcitabine (NSC613327), inavolisib (NSC800729), ipatasertib (NSC767898), KB-0742 (NSC834161), MRTX-1133 (NSC836407), osimertinib (NSC779217), RMC-4630 (NSC839698), RMC-6236 (NSC851965), RMC-6291 (NSC852671), Ro-3306 (NSC812927), sapanisertib (NSC764658), SN-38 (NSC673596), staurosporine (NSC755774), SY5609 (NSC837396), and tovorafenib (DAY101, NSC766906), were obtained from the National Cancer Institute (NCI) Developmental Therapeutics Program Chemical Repository. The FDA-approved anticancer drug set is available from the NCI Developmental Therapeutics Program. […] The stock solutions were prepared in dimethyl sulfoxide (DMSO, Sigma-Aldrich, St. Louis, MO, cat. D2650) at 800-fold the tested concentration and stored at -70 degrees C prior to their use. All drugs and investigational agents were tested over a range starting from a high concentration at or near the clinical Cmax and decreasing in half-log increments. If the clinical Cmax for an agent had not been determined, the highest concentration tested was 10 microM.
Cell Culture. All cells were maintained in an incubator at 37 degrees C and 5% CO2 with 95% humidity. The PDC lines were cultured according to standard operating procedures established by the NCI PDMR. All PDCs were thawed and cultured in Matrigel-coated flasks prepared with a working solution of 1X Ham's F-12 nutrient mix, without supplementation (Invitrogen, Waltham, MA, cat. 11765054), 100 U/mL penicillin-streptomycin (Invitrogen, cat. 15140122), and 2.5% Matrigel (Corning Inc., Corning, NY, cat. 354248) for the first three passages. The 362531-283-R-J2-PDC and 782815-120-R-J1-PDC lines were cultured in 6C/Colon 1B media, which includes advanced DMEM/F-12 (Thermo Fisher Scientific, cat. 12634028), 10 mM HEPES (Thermo Fisher Scientific, cat. 15630080), 1X GlutaMAX supplement (Thermo Fisher Scientific, cat. 35050061), 0.1 mg/mL primocin (InvivoGen, San Diego, CA, cat. ant-pm-2), 10% defined fetal bovine serum, heat inactivated (HyClone Laboratories Inc., Logan, UT, cat. SH30070.03HI), 50% L-WRN conditioned media (ATCC, cat. CRL-3276), 1.25 mM N-Acetyl-L-cysteine (Sigma-Aldrich, cat. A9165), 10 mM nicotinamide (Sigma-Aldrich, cat. N0636), 1X B-27 supplement (Thermo Fisher Scientific, cat. 17504044), 1X N-2 supplement (Thermo Fisher Scientific, cat. 17502048), 50 ng/mL human EGF (Thermo Fisher Scientific, cat. PHG0311), and 10 microM Y-27632 dihydrochloride (Tocris Bioscience, cat. 1254). The K12877-001-R-J1-PDC line was cultured in 6I media, which includes all 6C/Colon 1B media plus 10 ng/mL human FGF-10 (PeproTech, cat. 100-26), 1 ng/mL human FGF-2 (PeproTech, cat. 100-18B), 1 µM prostaglandin E2 (Tocris Bioscience, cat. 2296), […] hydrocortisone (Sigma-Aldrich, cat. H4001), and […] bovine insulin (Sigma-Aldrich, cat. I6634). The K86415-001-R-J1-PDC line was cultured in 6D media, which includes all 6C/Colon 1B media components minus the L-WRN conditioned media. The 485176-168-R4-J1-PDC was cultured in PANC media, which includes all 6C/Colon 1B media plus 100 ng/mL human FGF-10 (PeproTech, cat. 100-26), 500 nM SB-431542 (Selleckchem, cat. S1067), and 10 nM gastrin (Tocris Bioscience, cat. 3006). […]

[1] = second compound 0.000949 µM, first compound 0.0316 µM
[2] = second compound 0.000949 µM, first compound 0.1 µM
[3] = second compound 0.000949 µM, first compound 0.316 µM
[4] = second compound 0.000949 µM, first compound 1 µM
[5] = second compound 0.000949 µM, first compound 3.16 µM
[6] = second compound 0.000949 µM, first compound 10 µM
[7] = second compound 0.003 µM, first compound 0.0316 µM
[8] = second compound 0.003 µM, first compound 0.1 µM
[9] = second compound 0.003 µM, first compound 0.316 µM
[10] = second compound 0.003 µM, first compound 1 µM
[11] = second compound 0.003 µM, first compound 3.16 µM
[12] = second compound 0.003 µM, first compound 10 µM
[13] = second compound 0.00949 µM, first compound 0.0316 µM
[14] = second compound 0.00949 µM, first compound 0.1 µM
[15] = second compound 0.00949 µM, first compound 0.316 µM
[16] = second compound 0.00949 µM, first compound 1 µM
[17] = second compound 0.00949 µM, first compound 3.16 µM
[18] = second compound 0.00949 µM, first compound 10 µM
[19] = second compound 0.03 µM, first compound 0.0316 µM
[20] = second compound 0.03 µM, first compound 0.1 µM
[21] = second compound 0.03 µM, first compound 0.316 µM
[22] = second compound 0.03 µM, first compound 1 µM
[23] = second compound 0.03 µM, first compound 3.16 µM
[24] = second compound 0.03 µM, first compound 10 µM
[25] = second compound 0.0949 µM, first compound 0.0316 µM
[26] = second compound 0.0949 µM, first compound 0.1 µM
[27] = second compound 0.0949 µM, first compound 0.316 µM
[28] = second compound 0.0949 µM, first compound 1 µM
[29] = second compound 0.0949 µM, first compound 3.16 µM
[30] = second compound 0.0949 µM, first compound 10 µM
[31] = second compound 0.3 µM, first compound 0.0316 µM
[32] = second compound 0.3 µM, first compound 0.1 µM
[33] = second compound 0.3 µM, first compound 0.316 µM
[34] = second compound 0.3 µM, first compound 1 µM
[35] = second compound 0.3 µM, first compound 3.16 µM
[36] = second compound 0.3 µM, first compound 10 µM

## CCC(CC)c1cc(NC2CCC(N)C2)n2nccc2n1 (centres undefined) + CCn1c(-c2cccnc2C(C)OC)c2c3cc(ccc31)N1CCOC(CC(NC(=O)C(C(C)C)N(C)C(=O)C3(F)CCN(C(=O)C#CC(C)(C)N(C)C)CC3)C(=O)N3CCCC(N3)C(=O)OCC(C)(C)C2)C1
Second compound 0.000949 µM
  IC50: 1540 nM
Second compound 0.003 µM
  IC50: 1570 nM
Second compound 0.00949 µM
  IC50: 1540 nM
Second compound 0.03 µM
  IC50: 1340 nM
Second compound 0.0949 µM
  IC50: 1400 nM
Second compound 0.3 µM
  IC50: 1110 nM
[1]
  viability, T/C: 102%
[2]
  viability, T/C: 92.6%
[3]
  viability, T/C: 92.5%
[4]
  viability, T/C: 79.5%
[5]
  viability, T/C: 0.2%
[6]
  viability, T/C: 0.2%
[7]
  viability, T/C: 100%
[8]
  viability, T/C: 98.8%
[9]
  viability, T/C: 93.5%
[10]
  viability, T/C: 82.1%
[11]
  viability, T/C: 0.2%
[12]
  viability, T/C: 0.19%
[13]
  viability, T/C: 102%
[14]
  viability, T/C: 96.5%
[15]
  viability, T/C: 92.5%
[16]
  viability, T/C: 80.1%
[17]
  viability, T/C: 0.2%
[18]
  viability, T/C: 0.18%
[19]
  viability, T/C: 97.3%
[20]
  viability, T/C: 93.8%
[21]
  viability, T/C: 93.5%
[22]
  viability, T/C: 67%
[23]
  viability, T/C: 0.19%
[24]
  viability, T/C: 0.2%
[25]
  viability, T/C: 98.1%
[26]
  viability, T/C: 96.4%
[27]
  viability, T/C: 89.2%
[28]
  viability, T/C: 70.4%
[29]
  viability, T/C: 0.22%
[30]
  viability, T/C: 0.22%
[31]
  viability, T/C: 102%
[32]
  viability, T/C: 96.7%
[33]
  viability, T/C: 94.3%
[34]
  viability, T/C: 55.1%
[35]
  viability, T/C: 0.25%
[36]
  viability, T/C: 0.22%

## C[C@@H](NC(=O)c1ncnc(N)c1Cl)c1ncc(C(=O)Nc2cc(C(F)(F)F)c(Cl)cn2)s1 + CCn1c(-c2cccnc2C(C)OC)c2c3cc(ccc31)N1CCOC(CC(NC(=O)C(C(C)C)N(C)C(=O)C3(F)CCN(C(=O)C#CC(C)(C)N(C)C)CC3)C(=O)N3CCCC(N3)C(=O)OCC(C)(C)C2)C1
Second compound 0.000949 µM
  IC50: > 10000 nM
Second compound 0.003 µM
  IC50: > 10000 nM
Second compound 0.00949 µM
  IC50: > 10000 nM
Second compound 0.03 µM
  IC50: > 10000 nM
Second compound 0.0949 µM
  IC50: > 10000 nM
Second compound 0.3 µM
  IC50: > 10000 nM
[1]
  viability, T/C: 109%
[2]
  viability, T/C: 101%
[3]
  viability, T/C: 105%
[4]
  viability, T/C: 94.4%
[5]
  viability, T/C: 98.9%
[6]
  viability, T/C: 103%
[7]
  viability, T/C: 103%
[8]
  viability, T/C: 107%
[9]
  viability, T/C: 99.3%
[10]
  viability, T/C: 93.1%
[11]
  viability, T/C: 100%
[12]
  viability, T/C: 104%
[13]
  viability, T/C: 99.7%
[14]
  viability, T/C: 102%
[15]
  viability, T/C: 102%
[16]
  viability, T/C: 92.3%
[17]
  viability, T/C: 102%
[18]
  viability, T/C: 104%
[19]
  viability, T/C: 98.8%
[20]
  viability, T/C: 105%
[21]
  viability, T/C: 99.1%
[22]
  viability, T/C: 92.6%
[23]
  viability, T/C: 101%
[24]
  viability, T/C: 104%
[25]
  viability, T/C: 104%
[26]
  viability, T/C: 101%
[27]
  viability, T/C: 94.8%
[28]
  viability, T/C: 92.3%
[29]
  viability, T/C: 96.2%
[30]
  viability, T/C: 105%
[31]
  viability, T/C: 106%
[32]
  viability, T/C: 105%
[33]
  viability, T/C: 102%
[34]
  viability, T/C: 87.4%
[35]
  viability, T/C: 92.5%
[36]
  viability, T/C: 107%
